# Tested on: MOLT-4
# Assay: Cell viability assay (tetrazolium-based MTS) in MOLT4 cells
# Details: 48 h incubation
# Experimental: Cancer cells from acute lymphoblastic leukemia (MOLT4) were incubated with increasing concentrations of compounds of Examples 1-9 for 48 h. Cell viability was measured by tetrazolium-based MTS assay. 5×10^4 to 1×10^5 suspension cells or 3×10^3 to 5×10^3 adherent cells were seeded and treated in 96-well plates for 48 h. The EC50 values of individual agents were calculated with GraphPad Prism.
# [1] = MOLT4 acute lymphoblastic leukemia cells
# [2] = Homo sapiens, MOLT-4, MOLT4 acute lymphoblastic leukemia cells
EC50 [1],EC50 [2],SMILES
< 10 nM,–,"Cc1c(-c2ccc(N3CCc4cccc(C(=O)Nc5nc6ccccc6s5)c4C3)nc2C(=O)NCCOCCOCCOCCCc2ccc3c(c2)CN(C2CCC(=O)NC2=O)C3=O)cnn1CC12CC3CC(CC(C3)C1)C2 (centres unmarked) [degrader #33, 2-(5-(1-(adamantan-1-ylmethyl)-5-methyl-1H-pyrazol-4-yl)-6-((2-(2-(2-(3-(2-(2,6-dioxopiperidin-3-yl)-1-oxoisoindolin-5-yl)propoxy)ethoxy)ethoxy)ethyl)carbamoyl)pyridin-2-yl)-N-(benzo[d]thiazol-2-yl) 1,2,3,4-tetrahydroisociuinoline-8-carboxamide]"
100 to 1000 nM,–,"Cc1ncsc1-c1ccc([C@H](CC(=O)NCCCCCCCCNC(=O)c2nc(N3CCc4cccc(C(=O)Nc5nc6ccccc6s5)c4C3)ccc2-c2cnn(CC34CC5CC(CC(C5)C3)C4)c2C)NC(=O)[C@@H]2C[C@@H](O)CN2C(=O)[C@@H](NC(=O)C2(C#N)CC2)C(C)(C)C)cc1 [degrader #25, 2-(5-(1-(adamantan-1-ylmethyl)-5-methyl-1H-pyrazol-4-yl)-6-((8-((S)-3-((2S,4R)-1-((S)-2-(1-cyanocyclopropane-1-carboxamido)-3,3-dimethylbutanoyl)-4-hydroxypyrrolidine-2-carboxamido)-3-(4-(4-methylthiazol-5-yl)phenyl)propanamido)octyl)carbamoyl)pyridin-2-yl)-N-(benzo[d]thiazol-2-yl)-1,2,3,4-tetrahydroisoquninoline-8-carboxamide]"
–,10 to 100 nM,"Cc1ncsc1-c1ccc([C@H](C)NC(=O)[C@@H]2C[C@@H](O)CN2C(=O)[C@@H](NC(=O)CCCCCCCNC(=O)c2nc(N3CCc4cccc(C(=O)Nc5nc6ccccc6s5)c4C3)ccc2-c2cnn(CC34CC5CC(CC(C5)C3)C4)c2C)C(C)(C)C)cc1 [degrader #19, 2-(5-(1-(adamantan-1-ylmethyl)-5-methyl-1H-pyrazol-4-yl)-6-((8-(((S)-1-((2S,4R)-4-hydroxy-2-(((S)-1-(4-(4-methylthiazol-5-yl)phenyl)ethyl)carbamoyl)pyrrolidin-1-yl)-3,3-dimethyl-1-oxobutan-2-yl)amino)-8-oxooctyl)carbamoyl)pyridin-2-yl)-N-(benzo[d]thiazol-2-yl)-1,2,3,4-tetrahydroisoquinoline-8-carboxamide]"
–,10 to 100 nM,"Cc1c(-c2ccc(N3CCc4cccc(C(=O)Nc5nc6ccccc6s5)c4C3)nc2C(=O)NS(=O)(=O)CCCn2cc(COCCOCCNc3cccc4c3C(=O)N(C3CCC(=O)NC3=O)C4=O)nn2)cc(C#N)n1CC12CC3CC(CC(C3)C1)C2 (centres unmarked) [degrader #2, 2-(5-(1-(adamantan-1-ylmethyl)-5-cyano-2-methyl-1H-pyrrol-3-yl)-6-(((3-(4-((2-(2-((2-(2,6-dioxopiperidin-3-yl)-1,3-dioxoisoindolin-4-yl)amino)ethoxy)ethoxy)methyl)-1H-1,2,3-triazol-1-yl)propyl)sulfonyl)carbamoyl)pyridin-2-yl)-N-(benzo[d]thiazol-2-yl)-1,2,3,4-tetrahydroisoquinoline-8-carboxamide]"
–,10 to 100 nM,"Cc1ncsc1-c1ccc([C@H](CC(=O)NCCNC(=O)c2nc(N3CCc4cccc(C(=O)Nc5nc6ccccc6s5)c4C3)ccc2-c2cnn(CC34CC5CC(CC(C5)C3)C4)c2C)NC(=O)[C@@H]2C[C@@H](O)CN2C(=O)[C@@H](NC(=O)C2(C#N)CC2)C(C)(C)C)cc1 [degrader #20, 2-(5-(1-(adamantan-1-ylmethyl)-5-methyl-1H-pyrazol-4-yl)-6-((2-((S)-3-((2S,4R)-1-((S)-2-(1-cyanocyclopropane-1-carboxamido)-3,3-dimethylbutanoyl)-4-hydroxypyrrolidine-2-carboxamido)-3-(4-(4-methylthiazol-5-yl)phenyl)propanamido)ethyl)carbamoyl)pyridin-2-yl)-N-(benzo[d]thiazol-2-yl)-1,2,3,4-tetrahydroisoquinoline-8-carboxamide]"
